Legend:
NURR-1/RXRα = target: T1, NURR-1/RXRα (Homo sapiens, UniProt P19793); assay: Transactivation test, NURR-1-Gal4/RXRα, luciferase reporter in Cos-7 cells; format: cell-based; conditions: for Emax: COS-7, induction level relative to reference XCT0135908 at 2×10^−5 M (=100%), read-out: hNurr1_RXRaFL Emax (%); for EC50: Cos-7 cells, NURR-1-Gal4/RXRα, luciferase reporter, read-out: hNurr1_RXRaFL EC50
T1 construct: expressed in transfected cells; host or cells: Cos-7 cells

NURR-1/RXRγ = target: T2, NURR-1/RXRγ (Homo sapiens, UniProt P48443); assay: Transactivation test, NURR-1-Gal4/RXRγ, luciferase reporter in Cos-7 cells; format: cell-based; conditions: for Emax: COS-7, induction level relative to reference XCT0135908 at 2×10^−5 M (=100%), read-out: hNurr1_RXRgFL Emax (%); for EC50: Cos-7 cells, NURR-1-Gal4/RXRγ, luciferase reporter, read-out: hNurr1_RXRgFL EC50
T2 construct: expressed in transfected cells; host or cells: Cos-7 cells
T2 sequence (P48443 whole entry, the tested form may be a part): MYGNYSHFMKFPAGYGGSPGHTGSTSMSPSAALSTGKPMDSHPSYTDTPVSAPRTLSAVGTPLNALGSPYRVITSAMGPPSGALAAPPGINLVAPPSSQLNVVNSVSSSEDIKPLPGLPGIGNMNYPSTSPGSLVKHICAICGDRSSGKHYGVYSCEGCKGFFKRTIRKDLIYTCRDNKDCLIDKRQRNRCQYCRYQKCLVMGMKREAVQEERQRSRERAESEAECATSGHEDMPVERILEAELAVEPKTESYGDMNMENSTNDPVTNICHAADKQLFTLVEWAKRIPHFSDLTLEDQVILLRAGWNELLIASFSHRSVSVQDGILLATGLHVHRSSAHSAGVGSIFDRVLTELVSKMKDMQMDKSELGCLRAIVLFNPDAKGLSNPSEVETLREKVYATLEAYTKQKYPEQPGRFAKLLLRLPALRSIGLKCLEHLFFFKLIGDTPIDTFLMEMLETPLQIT
T2 sequence (P43354 whole entry partner, the tested form may be a part): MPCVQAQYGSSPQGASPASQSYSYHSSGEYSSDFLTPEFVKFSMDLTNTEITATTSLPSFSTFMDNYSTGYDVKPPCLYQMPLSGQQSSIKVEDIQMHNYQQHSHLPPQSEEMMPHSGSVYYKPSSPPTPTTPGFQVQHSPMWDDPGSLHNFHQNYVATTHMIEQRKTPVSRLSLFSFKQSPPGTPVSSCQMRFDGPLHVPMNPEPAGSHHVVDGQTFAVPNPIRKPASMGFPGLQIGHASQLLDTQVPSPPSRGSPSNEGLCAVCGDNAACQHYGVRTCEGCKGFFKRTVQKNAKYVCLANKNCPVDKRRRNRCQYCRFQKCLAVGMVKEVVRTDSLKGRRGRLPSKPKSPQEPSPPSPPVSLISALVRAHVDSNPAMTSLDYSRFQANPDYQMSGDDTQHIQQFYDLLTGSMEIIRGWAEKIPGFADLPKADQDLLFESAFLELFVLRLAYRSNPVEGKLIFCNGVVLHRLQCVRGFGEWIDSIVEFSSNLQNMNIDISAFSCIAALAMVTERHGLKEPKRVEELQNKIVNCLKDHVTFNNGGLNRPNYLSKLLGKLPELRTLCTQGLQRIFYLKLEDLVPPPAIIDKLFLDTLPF
T2 sequence (P04386 1-147 partner limits assumed): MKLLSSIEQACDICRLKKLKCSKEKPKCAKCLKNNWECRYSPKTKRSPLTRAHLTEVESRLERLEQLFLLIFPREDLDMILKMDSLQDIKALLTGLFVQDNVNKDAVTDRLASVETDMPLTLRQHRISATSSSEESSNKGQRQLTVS

T1 sequence (P19793 whole entry, the tested form may be a part): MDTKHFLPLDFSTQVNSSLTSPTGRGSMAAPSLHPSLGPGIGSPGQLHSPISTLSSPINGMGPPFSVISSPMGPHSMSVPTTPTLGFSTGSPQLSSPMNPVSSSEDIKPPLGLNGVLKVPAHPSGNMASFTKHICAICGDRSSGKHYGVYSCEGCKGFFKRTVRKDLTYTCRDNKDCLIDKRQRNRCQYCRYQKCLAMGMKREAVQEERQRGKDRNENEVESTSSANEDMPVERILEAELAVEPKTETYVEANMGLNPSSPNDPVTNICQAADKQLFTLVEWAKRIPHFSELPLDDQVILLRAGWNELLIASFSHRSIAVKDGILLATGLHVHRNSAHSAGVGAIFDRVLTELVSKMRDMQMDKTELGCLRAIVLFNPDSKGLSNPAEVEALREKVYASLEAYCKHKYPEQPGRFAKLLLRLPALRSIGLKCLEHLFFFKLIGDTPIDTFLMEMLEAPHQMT
T1 sequence (P43354 whole entry partner, the tested form may be a part): as the sequence (P43354 whole entry partner, the tested form may be a part) above
T1 sequence (P04386 1-147 partner limits assumed): as the sequence (P04386 1-147 partner limits assumed) above

Cc1cn(-c2cccc(N3CC(C(=O)NS(C)(=O)=O)C3)c2)c2ccc(C(F)(F)F)cc12 [Example 150, N-methylsulfonyl-1-[3-[3-methyl-5-(trifluoromethyl)indol-1-yl]phenyl]azetidine-3-carboxamide]
Emax (NURR-1/RXRα): 89% | EC50 (NURR-1/RXRα): 4 nM | Emax (NURR-1/RXRγ): 79% | EC50 (NURR-1/RXRγ): 4 nM | melting point: 99 to 109 °C

Cc1cn(-c2cccc(N3CC(C(=O)NC4CC4)C3)c2)c2ccc(C(F)(F)F)cc12 [Example 184, N-cyclopropyl-1-[3-[3-methyl-5-(trifluoromethyl)indol-1-yl]phenyl]azetidine-3-carboxamide]
Emax (NURR-1/RXRα): 90% | EC50 (NURR-1/RXRα): 5 nM | Emax (NURR-1/RXRγ): 91% | EC50 (NURR-1/RXRγ): 7 nM | melting point: 182 to 184 °C

Cc1cn(-c2cccc(N3CC(C(N)=O)C3)c2)c2ccc(C(F)(F)F)cc12 [Example 185, 1-[3-[3-methyl-5-(trifluoromethyl)indol-1-yl]phenyl]azetidine-3-carboxamide]
Emax (NURR-1/RXRα): 95% | EC50 (NURR-1/RXRα): 5 nM | Emax (NURR-1/RXRγ): 90% | EC50 (NURR-1/RXRγ): 7 nM | melting point: 160 to 163 °C

CC1(C)CNc2c(cc(OC(F)(F)F)cc2-c2cccc(N3CC(C(=O)O)C3)c2)O1 [Example 188, 1-[3-[2.2-dimethyl-7-(trifluoromethoxy)-3,4-dihydro-1,4-benzoxazin-5-yl]phenyl]azetidine-3-carboxylic acid]
Emax (NURR-1/RXRα): 100% | EC50 (NURR-1/RXRα): 7 nM | Emax (NURR-1/RXRγ): 98% | EC50 (NURR-1/RXRγ): 9 nM | melting point: 67 to 74 °C

CC1(C)CNc2c(cc(Cl)cc2-c2cccc(N3CC(C(=O)O)C3)c2)O1 [Example 189, 1-[3-(7-chloro-2,2-dimethyl-3,4-dihydro-1,4-benzoxazin-5-yl)phenyl]azetidine-3-carboxylic acid]
Emax (NURR-1/RXRα): 110% | EC50 (NURR-1/RXRα): 13 nM | Emax (NURR-1/RXRγ): 119% | EC50 (NURR-1/RXRγ): 475 nM | melting point: 81 to 88 °C

Cc1cc2c(c(-c3cccc(N4CC(C(=O)O)C4)c3)c1)NCC(C)(C)O2 [Example 190, 1-[3-(2,2,7-trimethyl-3,4-dihydro-1,4-benzoxazin-5-yl)phenyl]azetidine-3-carboxylic acid]
Emax (NURR-1/RXRα): 110% | EC50 (NURR-1/RXRα): 18 nM | Emax (NURR-1/RXRγ): 109% | EC50 (NURR-1/RXRγ): 36 nM | melting point: 82 to 90 °C

CC(C)c1cc2c(c(-c3cccc(N4CC(C(=O)O)C4)c3)c1)NCC(C)(C)O2 [Example 191, 1-[3-(7-isopropyl-2,2-dimethyl-3,4-dihydro-1,4-benzoxazin-5-yl)phenyl]azetidine-3-carboxylic acid]
Emax (NURR-1/RXRα): 90% | EC50 (NURR-1/RXRα): 31 nM | Emax (NURR-1/RXRγ): 91% | EC50 (NURR-1/RXRγ): 47 nM | melting point: 78 to 83 °C

CC1(C)CNc2c(cc(C3CC3)cc2-c2cccc(N3CC(C(=O)O)C3)c2)O1 [Example 192, 1-[3-(7-cyclopropyl-2,2-dimethyl-3,4-dihydro-1,4-benzoxazin-5-yl)phenyl]azetidine-3-carboxylic acid]
Emax (NURR-1/RXRα): 92% | EC50 (NURR-1/RXRα): 40 nM | Emax (NURR-1/RXRγ): 89% | EC50 (NURR-1/RXRγ): 102 nM | melting point: 70 to 74 °C

COc1cc2c(c(-c3cccc(N4CC(C(=O)[O-])C4)c3)c1)NCC(C)(C)O2.[Na+] [Example 193, sodium 1-[3-(7-methoxy-2,2-dimethyl-3,4-dihydro-1,4-benzoxazin-5-yl)phenyl]azetidine-3-carboxylate]
Emax (NURR-1/RXRα): 109% | EC50 (NURR-1/RXRα): 1170 nM | Emax (NURR-1/RXRγ): 85% | EC50 (NURR-1/RXRγ): 799 nM | melting point: 144 to 152 °C

CC1Nc2c(cc(C(F)(F)F)cc2-c2cccc(N3CC(C(=O)O)C3)c2)OC1(C)C (centres unmarked) [Example 197, 1-[3-[2,2,3-trimethyl-7-(trifluoromethyl)-3,4-dihydro-1,4-benzoxazin-5-yl]phenyl]azetidine-3-carboxylic acid]
Emax (NURR-1/RXRα): 55% | EC50 (NURR-1/RXRα): 14 nM | Emax (NURR-1/RXRγ): 50% | EC50 (NURR-1/RXRγ): 34 nM | melting point: 83 to 95 °C

CC(C)C1CNc2c(cc(C(F)(F)F)cc2-c2cccc(N3CC(C(=O)O)C3)c2)O1 (centres unmarked) [Example 198, 1-[3-[2-isopropyl-7-(trifluoromethyl)-3,4-dihydro-2H-1,4-benzoxazin-5yl]phenyl]azetidine-3-carboxylic acid]
Emax (NURR-1/RXRα): 71% | EC50 (NURR-1/RXRα): 14 nM | Emax (NURR-1/RXRγ): 59% | EC50 (NURR-1/RXRγ): 38 nM | melting point: 88 to 89 °C

O=C(O)C1CN(c2cccc(-c3cc(C(F)(F)F)cc4c3NCCC4)c2)C1 [Example 201, 1-[3-[6-(trofluromethyl)-1,2,3,4-tetrahydroquinolin-8-yl]phenyl]azetidine-3-carboxylic acid]
Emax (NURR-1/RXRα): 99% | EC50 (NURR-1/RXRα): 284 nM | Emax (NURR-1/RXRγ): 65% | EC50 (NURR-1/RXRγ): 760 nM | melting point: 75 to 81 °C

CC1(C)CNc2cc(C(F)(F)F)cc(-c3cccc(N4CC(C(=O)O)C4)c3)c2O1 [Example 202, 1-[3-[2,2-dimethyl-6-(trifluoromethyl)-3,4-dihydro-1,4-benzoxazin-8-yl]phenyl]azetidine-3-carboxylic acid]
Emax (NURR-1/RXRα): 55% | EC50 (NURR-1/RXRα): 309 nM | Emax (NURR-1/RXRγ): 51% | EC50 (NURR-1/RXRγ): 303 nM | melting point: 160 to 169 °C

CC1(C)CNc2c(cc(C(C)(C)C)cc2-c2cccc(N3CC(C(=O)[O-])C3)c2)C1.[Na+] [Example 204, sodium 1-[3-(6-tert-butyl-3,3-dimethyl-2,4-dihydro-1H-quinolin-8-yl)phenyl]azetidine-3-carboxylate]
Emax (NURR-1/RXRα): 87% | EC50 (NURR-1/RXRα): 3 nM | Emax (NURR-1/RXRγ): 84% | EC50 (NURR-1/RXRγ): 3 nM | melting point: 163 to 173 °C

CC1N(c2cccc(N3CC(C(=O)O)C3)c2)c2ccc(C(F)(F)F)cc2OC1(C)C (centres unmarked) [Example 216, 1-[3-[2,2,3-trimethyl-7-(trifluoromethyl)-3H-1,4-benzoxazin-4-yl]phenyl]azetidine-3-carboxylate acid]
Emax (NURR-1/RXRα): 98% | EC50 (NURR-1/RXRα): 8 nM | Emax (NURR-1/RXRγ): 115% | EC50 (NURR-1/RXRγ): 13 nM | melting point: 70 to 80 °C

CCC1(CC)CN(c2cccc(N3CC(C(=O)O)C3)c2)c2ccc(C(F)(F)F)cc2O1 [Example 218, 1-[3-[2,2-diethyl-7-(trifluoromethyl)-3H-1,4-benzoxazin-4-yl]phenyl]azetidine-3-carboxylic acid]
Emax (NURR-1/RXRα): 72% | EC50 (NURR-1/RXRα): 5 nM | Emax (NURR-1/RXRγ): 73% | EC50 (NURR-1/RXRγ): 14 nM | melting point: 70 to 79 °C

CC1(C)Cc2cc(C(F)(F)F)ccc2N(c2cccc(N3CC(C(=O)O)C3)c2)C1 [Example 219, 1-[3-[3,3-dimethyl-6-(trifluoromethyl)-2,4-dihydroquinolin-1-yl]phenyl]azetidine-3-carboxylic acid]
Emax (NURR-1/RXRα): 105% | EC50 (NURR-1/RXRα): 5 nM | Emax (NURR-1/RXRγ): 110% | EC50 (NURR-1/RXRγ): 32 nM | melting point: 66 to 84 °C

O=C(O)C1CN(c2cccc(N3CCCc4cc(C(F)(F)F)ccc43)c2)C1 [Example 220, 1-[3-[6-(trifluoromethyl)-3,4-dihydro-2H-quinolin-1-yl]phenyl]azetidine-3-carboxylic acid]
Emax (NURR-1/RXRα): 92% | EC50 (NURR-1/RXRα): 6 nM | Emax (NURR-1/RXRγ): 90% | EC50 (NURR-1/RXRγ): 14 nM | melting point: 57 to 62 °C

CC(C)c1ccc2c(c1)CCCN2c1cccc(N2CC(C(=O)[O-])C2)c1.[Na+] [Example 221, sodium 1-[3-(6-isopropyl-3,4-dihydro-2H-1uinolin-1-yl)phenyl]azetidine-3-carboxylate]
Emax (NURR-1/RXRα): 97% | EC50 (NURR-1/RXRα): 68 nM | Emax (NURR-1/RXRγ): 92% | EC50 (NURR-1/RXRγ): 228 nM | melting point: 49 to 52 °C

CC(C)C1CN(c2cccc(N3CC(C(=O)O)C3)c2)c2ccc(C(F)(F)F)cc2O1 (centres unmarked) [Example 223, 1-[3-[2-isopropyl-7-(trifluoromethyl)-2,3-dihydro-1,4-benzoxazin-4-yl]phenyl]azetidine-3-carboxylic acid]
Emax (NURR-1/RXRα): 80% | EC50 (NURR-1/RXRα): 25 nM | Emax (NURR-1/RXRγ): 81% | EC50 (NURR-1/RXRγ): 48 nM | melting point: 64 to 71 °C

CC1(C)CN(c2cccc(N3CC(C(=O)O)C3)c2)c2ccc(Cl)cc2O1 [Example 224, 1-[3-(7-chloro-2,2-dimtethyl-3H-1,4-benzoxazin-4-yl)phenyl]azetidine-3-carboxylic acid]
Emax (NURR-1/RXRα): 110% | EC50 (NURR-1/RXRα): 38 nM | Emax (NURR-1/RXRγ): 93% | EC50 (NURR-1/RXRγ): 65 nM | melting point: 66 to 71 °C

CC1(C)CN(c2cccc(N3CC(C(=O)O)C3)c2)c2ccc(OC(F)(F)F)cc2O1 [Example 226, 1-[3-[2,2-dimethyl-7-(trifluoromethyoxy)-3H-1,4-benzoxazin-4-yl]phenyl]azetidine-3-carboxylic acid]
Emax (NURR-1/RXRα): 103% | EC50 (NURR-1/RXRα): 71 nM | Emax (NURR-1/RXRγ): 106% | EC50 (NURR-1/RXRγ): 156 nM | melting point: 69 to 76 °C

Cc1ccc2c(c1)OC(C)(C)CN2c1cccc(N2CC(C(=O)O)C2)c1 [Example 227, 1-[3-(2,2,7-trimethyl-3H-1,4-benzoxazin-4-yl)phenyl]azetidine-3-carboxylic acid]
Emax (NURR-1/RXRα): 104% | EC50 (NURR-1/RXRα): 78 nM | Emax (NURR-1/RXRγ): 93% | EC50 (NURR-1/RXRγ): 181 nM | melting point: 68 to 78 °C

CC1(C)CN(c2cccc(N3CC(C(=O)O)C3)c2)c2ccc(C3CC3)cc2O1 [Example 229, 1-[3-(7-cyclopropyl-2,2-dimethyl-3H-1,4-benzoxazin-4yl)phenyl]azetidine-3-carboxylic acid]
Emax (NURR-1/RXRα): 104% | EC50 (NURR-1/RXRα): 243 nM | Emax (NURR-1/RXRγ): 104% | EC50 (NURR-1/RXRγ): 420 nM | melting point: 67 to 71 °C

CC(C)c1ccc2c(c1)OCCN2c1cccc(N2CC(C(=O)O)C2)c1 [Example 232, 1-[3-(7-isopropyl-2,3-dihydro-1,4-benzoxazin-4-yl)phenyl]azetidine-3-carboxylic acid]
Emax (NURR-1/RXRα): 97% | EC50 (NURR-1/RXRα): 386 nM | Emax (NURR-1/RXRγ): 99% | EC50 (NURR-1/RXRγ): 465 nM | melting point: 48 to 51 °C

From patent publication US20170066717A1, “NEW PHENYLAZETIDINECARBOXYLATE OR -CARBOXAMIDE COMPOUNDS” (INVENTIVA, priority 2014, published 2017)
